Measurements as given in patent publication US20200188388A1, “METHODS AND COMPOSITIONS FOR PO[…] DRUGS AND REDUCING THEIR SIDE EFFECTS” (RVX THERAPEUTICS LTD., priority 2016, published 2020).

Columns and labels:
Wistar rats [1] = test: Rotenone model: hyperkinetic side effect in open field test (days 10 and 18); type: in vivo, rat; details: locomotive activity in OF test increased more than 50% vs first day
Experimental: Anti-parkinsonian effect of therapy in rats with rotenone-induced PD was estimated according to elimination of extrapyramidal disorders (catalepsy) and oligokinesia (rapid decreased amplitude and velocity of repeated movements) in the “open field” test. The neuro-protective effect of therapy was evaluated by the elimination of ataxia limb dystonia and mortality in rats with rotenone-induced PSP. Hyperkinetic side action (hyper-locomotion) was evaluated by increased horizontal and vertical activity in the open field at the 10th and 18th day of the experiment, calculated in % compared to the first day of the experiment.
(§1) Ataxia and limb dystonia registration was performed twice daily, 30 minutes before administration of rotenone and 180 minutes after administration of rotenone. For each experimental group on a daily basis, throughout the whole period of observation number of rats with severe ataxia and limb dystonia (++−+++) and mortality in % of the total number of rats in group was determined. The neuro-protective effect of therapy (effects on rate of ataxia, limb dystonia and lethality) in rats with PSP was determined at days 12 and 19 of the experiment as reducing the number of rats with severe ataxia limb dystonia and mortality in % compared to control. Side hyperkinetic effects were evaluated in the “open field” test. In this test the locomotive activity in rats is determined. […] Registration of horizontal and vertical locomotive activity in OF assay was performed on the 10th and 18th day of the experiment, within 40 minutes after administration of the substance and 5 minutes before administration of rotenone. Side hyperkinetic effects was evaluated by the number of rats with a significant (at least 50% compared with the first day of the experiment) increase in horizontal and vertical activity (hyperkinesia) as a % of the total number of rats in group.
Anti-parkinsonian effect of therapy in rats with rotenone-induced parkinsonism was estimated according to elimination of extrapyramidal disorders (catalepsy) and oligokinesia in the “open field” test. The neuro-protective effect of therapy was evaluated by the elimination of ataxia and mortality in rats with rotenone-induced PSP. Hyperkinetic side action (hyper-locomotion) was evaluated by increased horizontal and vertical activity in the open field at the 10th and 18th day of the experiment, calculated in % compared to the first day of the experiment.
The neuro-protective effect in the experimental groups of rats with rotenone-induced PSP was evaluated due the elimination of ataxia and mortality caused by neurotoxic action of rotenone. Ataxia is typical incoordination neurotoxic effect of rotenone manifested in uncoordinated movements and hyper-locomotion, replaced by hypokinesia and stereotypes, and in severe cases a complete violation of antigravity reflexes, falling on its side and akinesia. Assessment of the severity of ataxia in scores was performed using the following scale: (+) uncoordinated movement, hyperkinesia; (++) significant incoordination, hypokinesia, stereotypes, falling on its side; (+++) complete violation of antigravity reflexes, akinesia. Ataxia registration was performed twice daily, 30 minutes before administration of rotenone and 180 minutes after administration of rotenone. For each experimental group on a daily basis, throughout the whole period of observation number of rats with severe ataxia (++−+++) and mortality in % of the total number of rats in group was determined. The neuro-protective effect of therapy (effects on rate of ataxia and lethality) in rats with PSP was determined at days 12 and 19 of the experiment as reducing the number of rats with severe ataxia and mortality in % compared to control. Side hyperkinetic effects were evaluated in the “open field” test. In this test the locomotive activity in rats is determined. […]

Wistar rats [2] = test: Rotenone-induced PSP: severe ataxia, limb dystonia and lethality; type: in vivo, rat; details: for Severe ataxia sustained dystonic postures and lethality (% of group): ataxia and limb dystonia ++-+++; for [lethality] (% of group): value in brackets
Experimental: The neuro-protective effect in the experimental groups of rats with rotenone-induced PSP was evaluated due the elimination of ataxia, limb dystonia and mortality caused by cerebellar neurotoxic action of rotenone (J. Neurochem., 2005, Vol. 95(4):930-9).
Ataxia and limb dystonia is typical incoordination neurotoxic effect of rotenone manifested in uncoordinated movements and hyper-locomotion, replaced by hypokinesia and stereotypes, and in severe cases a complete violation of antigravity reflexes, falling on its side dystonic posture and akinesia. Assessment of the severity of ataxia and limb dystonia in scores was performed using the following scale: (+) uncoordinated movement, hyperkinesia; (++) significant incoordination, hypokinesia, stereotypes, falling on its side; frequent spontaneous dystonic postures (+++) complete violation of antigravity reflexes, akinesia, sustained dystonic posture (J. Neurosci., 2014, 27; 34(35):11723-32)
as §1
The neuro-protective effect in the experimental groups of rats with rotenone-induced PSP was evaluated due the elimination of ataxia and mortality caused by neurotoxic action of rotenone. Ataxia is typical incoordination neurotoxic effect of rotenone manifested in uncoordinated movements and hyper-locomotion, replaced by hypokinesia and stereotypes, and in severe cases a complete violation of antigravity reflexes, falling on its side and akinesia. Assessment of the severity of ataxia in scores was performed using the following scale: (+) uncoordinated movement, hyperkinesia; (++) significant incoordination, hypokinesia, stereotypes, falling on its side; (+++) complete violation of antigravity reflexes, akinesia. Ataxia registration was performed twice daily, 30 minutes before administration of rotenone and 180 minutes after administration of rotenone. For each experimental group on a daily basis, throughout the whole period of observation number of rats with severe ataxia (++−+++) and mortality in % of the total number of rats in group was determined. The neuro-protective effect of therapy (effects on rate of ataxia and lethality) in rats with PSP was determined at days 12 and 19 of the experiment as reducing the number of rats with severe ataxia and mortality in % compared to control. Side hyperkinetic effects were evaluated in the “open field” test. In this test the locomotive activity in rats is determined. […] Registration of horizontal and vertical locomotive activity in OF assay was performed on the 10th and 18th day of the experiment, within 40 minutes after administration of the substance and 5 minutes before administration of rotenone.

SMILES	Hyperkmesia (% of group) (Wistar rats [1]; Day 10, levodopa 10 mg/kg oral)	Hyperkmesia (% of group) (Wistar rats [1]; Day 10, levodopa 20 mg/kg oral)	Hyperkmesia (% of group) (Wistar rats [1]; Day 18, levodopa 10 mg/kg oral)	Hyperkmesia (% of group) (Wistar rats [1]; Day 18, levodopa 20 mg/kg oral)	Severe ataxia sustained dystonic postures and lethality (% of group) (Wistar rats [2]; Day 12, levodopa 10 mg/kg oral)	[lethality] (% of group) (Wistar rats [2]; Day 12, levodopa 10 mg/kg oral)	Severe ataxia sustained dystonic postures and lethality (% of group) (Wistar rats [2]; Day 12, levodopa 20 mg/kg oral)	[lethality] (% of group) (Wistar rats [2]; Day 12, levodopa 20 mg/kg oral)	Severe ataxia sustained dystonic postures and lethality (% of group) (Wistar rats [2]; Day 19, levodopa 10 mg/kg oral)	[lethality] (% of group) (Wistar rats [2]; Day 19, levodopa 10 mg/kg oral)	Severe ataxia sustained dystonic postures and lethality (% of group) (Wistar rats [2]; Day 19, levodopa 20 mg/kg oral)	[lethality] (% of group) (Wistar rats [2]; Day 19, levodopa 20 mg/kg oral)	Hyperkmesia (% of group) (Wistar rats [1]; Day 10, memantine 5 mg/kg oral)	Hyperkmesia (% of group) (Wistar rats [1]; Day 18, memantine 5 mg/kg oral)	Severe ataxia sustained dystonic postures and lethality (% of group) (Wistar rats [2]; Day 12, memantine 5 mg/kg oral)	[lethality] (% of group) (Wistar rats [2]; Day 12, memantine 5 mg/kg oral)	Severe ataxia sustained dystonic postures and lethality (% of group) (Wistar rats [2]; Day 19, memantine 5 mg/kg oral)	[lethality] (% of group) (Wistar rats [2]; Day 19, memantine 5 mg/kg oral)
N[C@@H](Cc1ccc(O)c(O)c1)C(=O)O [Levodopa, L-3,4-dihydroxyphenylalanine]	0 % of group	88 % of group	0 % of group	75 % of group	14 % of group	0 % of group	0[0] % of group	0[0] % of group	42 % of group	14 % of group	24 % of group	0 % of group						
CC12CC3CC(C)(C1)CC(N)(C3)C2 [Memantine, memantine]													40 % of group	60 % of group	0 % of group	17 % of group	17[17] % of group	17[17] % of group
